This note sets out measurements from patent US11530221B2, “Pyrimido[4,5-d]pyrimidin-2-one derivatives as protein kinase inhibitors” (KOREA INSTITUTE OF SCIENCE AND TECHNOLOGY, priority 2019, dated 2022).

Like-named read-outs stand apart in the source and are kept apart here. Square brackets hold non-standard residues; d marks the D form. Peptide text beside a SMILES is read from it. * marks the point of attachment. X1 = Cc1ccc(Nc2ncc3c(n2)N(C)C(=O)N(c2cc(C(=O)*)ccc2C)C3)cn1; Ac3c = NC1(C(=O)O)CC1; Aib = CC(C)(N)C(=O)O

The target of one experiment is LCK (Homo sapiens, UniProt P06239). Briefly: IC50 inhibitory activity against LCK kinase. The format is biochemical. The protocol:
(§1) IC50 values were calculated by measuring the inhibitory activity against LCK, c-Src, p38a/MAPK14, ABL1, DDR1 and FGR kinases of the compounds of the present invention.

In a further experiment the target is c-Src (Homo sapiens, UniProt P12931). Briefly: IC50 inhibitory activity against c-Src kinase. Type of experiment: biochemical. The protocol: as §1
Sequence of c-Src (P12931 whole entry): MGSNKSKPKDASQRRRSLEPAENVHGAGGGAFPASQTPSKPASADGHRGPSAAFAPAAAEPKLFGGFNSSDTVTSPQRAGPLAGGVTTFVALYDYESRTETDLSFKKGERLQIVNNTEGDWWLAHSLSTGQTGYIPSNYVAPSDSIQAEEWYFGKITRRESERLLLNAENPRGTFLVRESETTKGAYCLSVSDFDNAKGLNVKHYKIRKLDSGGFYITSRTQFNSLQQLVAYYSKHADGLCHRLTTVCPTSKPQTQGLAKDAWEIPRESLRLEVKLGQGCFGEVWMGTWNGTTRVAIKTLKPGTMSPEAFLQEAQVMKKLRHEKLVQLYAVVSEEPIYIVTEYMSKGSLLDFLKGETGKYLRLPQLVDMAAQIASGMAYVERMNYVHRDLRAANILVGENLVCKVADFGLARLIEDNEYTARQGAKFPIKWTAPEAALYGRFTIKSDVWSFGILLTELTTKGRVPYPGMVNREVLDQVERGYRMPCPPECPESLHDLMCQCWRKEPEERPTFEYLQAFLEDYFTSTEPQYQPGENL

Sequence of LCK (P06239 whole entry): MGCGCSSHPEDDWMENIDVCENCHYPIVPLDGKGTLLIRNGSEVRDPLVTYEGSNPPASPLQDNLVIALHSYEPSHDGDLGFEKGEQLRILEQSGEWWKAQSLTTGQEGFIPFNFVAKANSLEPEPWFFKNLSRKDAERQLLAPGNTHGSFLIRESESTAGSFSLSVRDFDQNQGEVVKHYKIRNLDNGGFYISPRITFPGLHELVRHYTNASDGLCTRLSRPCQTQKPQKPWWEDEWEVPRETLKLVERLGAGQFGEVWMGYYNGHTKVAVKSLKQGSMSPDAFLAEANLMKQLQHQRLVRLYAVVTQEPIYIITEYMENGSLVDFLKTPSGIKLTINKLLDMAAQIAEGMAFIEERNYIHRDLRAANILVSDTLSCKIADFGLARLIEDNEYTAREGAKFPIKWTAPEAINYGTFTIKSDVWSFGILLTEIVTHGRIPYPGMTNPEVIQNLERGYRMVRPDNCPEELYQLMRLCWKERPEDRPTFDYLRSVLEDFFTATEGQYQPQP

On to `Cc1ccc(Nc2ncc3c(n2)N(C)C(=O)N(c2cc(C(=O)N[C@@H](Cc4ccccc4)C(=O)N4CCC[C@H]4C(=O)NC(C)(C)C(=O)N[C@H](C(=O)N(C)C)C(C)C)ccc2C)C3)cn1` [Example 24, (S)—N-(1-(((S)-1-(dimethylamino)-3-methyl-1-oxobutan-2-yl)amino)-2-methyl-1-oxopropan-2-yl)-1-((4-methyl-3-(1-methyl-7-((6-methylpyridin-3-yl)amino)-2-oxo-1,4-dihydropyrimido[4,5-d]pyrimidin-3(2H)-yl)benzoyl)-L-phenylalanyl)pyrrolidine-2-carboxamide] (X1-FP[Aib]V-NMe2), for which the half-maximal inhibitory concentration (IC50) (commonly the midpoint of a concentration-inhibition curve) was 1 to 200 nM on LCK (read-out: LCK IC50) and > 600 nM on c-Src (read-out: c-Src IC50).

In the case of `Cc1ccc(Nc2ncc3c(n2)N(C)C(=O)N(c2cc(NC(=O)c4ccc5c(c4)N(CC(=O)NCc4ccccc4)C(=O)[C@H](CC(C)C)N=C5c4ccccc4)ccc2C)C3)cn1` [Example 43, (S)-1-(2-(benzylamino)-2-oxoethyl)-3-isobutyl-N-(4-methyl-3-(1-methyl-7-((6-methylpyridin-3-yl)amino)-2-oxo-1,4-dihydropyrimido[4,5-d]pyrimidin-3(2H)-yl)phenyl)-2-oxo-5-phenyl-2,3-dihydro-1H-benzo[e][1,4]diazepine-8-carboxamide], the IC50 at LCK (read-out: LCK IC50) and at c-Src (read-out: c-Src IC50) was 1 to 200 nM throughout.

In the case of `C=CCCC1=N[C@@H](CC(=O)Nc2ccc(C)c(N3Cc4cnc(Nc5ccc(C)nc5)nc4N(C)C3=O)c2)C(=O)N(Cc2ccccc2)c2ccccc21` [Example 46, (S)-2-(1-benzyl-5-(but-3-en-1-yl)-2-oxo-2,3-dihydro-1H-benzo[e][1,4]diazepin-3-yl)-N-(4-methyl-3-(1-methyl-7-((6-methylpyridin-3-yl)amino)-2-oxo-1,4-dihydropyrimido[4,5-d]pyrimidin-3(2H)-yl)phenyl)acetamide], the IC50 on LCK (read-out: LCK IC50) and on c-Src (read-out: c-Src IC50) was 1 to 200 nM each time.

Take `Cc1ccc(Nc2ncc3c(n2)N(C)C(=O)N(c2cc(C(=O)N[C@H](C(=O)N4CCC[C@H]4C(=O)N[C@@H](Cc4ccccc4)C(=O)N[C@@H](CC(C)C)C(=O)N(C)C)C(C)C)ccc2C)C3)cn1` [Example 11] (X1-VPFL-NMe2): the concentration for half-maximal inhibition (IC50) at LCK (read-out: LCK IC50) and on c-Src (read-out: c-Src IC50) was 1 to 200 nM in each case.

With `Cc1ccc(Nc2ncc3c(n2)N(C)C(=O)N(c2cc(NC(=O)c4ccc5c(c4)NC(=O)[C@H](Cc4cccc(F)c4)N=C5c4ccccc4)ccc2C)C3)cn1` [Example 27, (S)-3-(3-fluorobenzyl)-N-(4-methyl-3-(1-methyl-7-((6-methylpyridin-3-yl)amino)-2-oxo-1,4-dihydropyrimido[4,5-d]pyrimidin-3(2H)-yl)phenyl)-2-oxo-5-phenyl-2,3-dihydro-1H-benzo[e][1,4]diazepine-8-carboxamide], the half-inhibitory concentration (IC50) at LCK (read-out: LCK IC50) and on c-Src (read-out: c-Src IC50) was 1 to 200 nM in each case.

In the case of `Cc1ccc(Nc2ncc3c(n2)N(C)C(=O)N(c2cc(C(=O)N[C@H](C(=O)N4CCC[C@H]4C(=O)NC(C)(C)C(=O)N[C@H](C(=O)N(C)C)C(C)C)C(C)C)ccc2C)C3)cn1` [Example 22, (S)—N-(1-(((S)-1-(dimethylamino)-3-methyl-1-oxobutan-2-yl)amino)-2-methyl-1-oxopropan-2-yl)-1-((4-methyl-3-(1-methyl-7-((6-methylpyridin-3-yl)amino)-2-oxo-1,4-dihydropyrimido[4,5-d]pyrimidin-3(2H)-yl)benzoyl)-L-valyl)pyrrolidine-2-carboxamide] (X1-VP[Aib]V-NMe2), the half-maximal inhibitory concentration (IC50) at LCK (read-out: LCK IC50) and on c-Src (read-out: c-Src IC50) was > 600 nM throughout.

As for `Cc1ccc(Nc2ncc3c(n2)N(C)C(=O)N(c2cc(C(=O)N[C@H](C(=O)N4CCC[C@H]4C(=O)NCC(=O)N[C@@H](CC(C)C)C(=O)N(C)C)C(C)C)ccc2C)C3)cn1` [Example 6, (S)—N-(2-(((S)-1-(dimethylamino)-4-methyl-1-oxopentan-2-yl)amino)-2-oxoethyl)-1-((4-methyl-3-(1-methyl-7-((6-methylpyridin-3-yl)amino)-2-oxo-1,4-dihydropyrimido[4,5-d]pyrimidin-3(2H)-yl)benzoyl)-L-valyl)pyrrolidine-2-carboxamide] (X1-VPGL-NMe2), the IC50 against LCK is 1 to 200 nM; on c-Src, > 600 nM.

Take `Cc1ccc(Nc2ncc3c(n2)N(C)C(=O)N(c2cc(C(=O)N[C@@H](C)C(=O)N4CCC[C@H]4C(=O)NC(C)(C)C(=O)N[C@H](C(=O)N(C)C)C(C)C)ccc2C)C3)cn1` [Example 25, (S)—N-(1-(((S)-1-(dimethylamino)-3-methyl-1-oxobutan-2-yl)amino)-2-methyl-1-oxopropan-2-yl)-1-((4-methyl-3-(1-methyl-7-((6-methylpyridin-3-yl)amino)-2-oxo-1,4-dihydropyrimido[4,5-d]pyrimidin-3(2H)-yl)benzoyl)-L-alanyl)pyrrolidine-2-carboxamide] (X1-AP[Aib]V-NMe2): the results for the half-inhibitory concentration (IC50) against LCK and against c-Src were 200 to 400 nM and > 600 nM, respectively.

As to `Cc1ccc(Nc2ncc3c(n2)N(C)C(=O)N(c2cc(C(=O)N[C@H](C(=O)N4CCC[C@@H]4C(=O)NC(C)(C)C(=O)N[C@H](C(=O)N(C)C)C(C)C)C(C)C)ccc2C)C3)cn1` [Example 23, (R)—N-(1-(((S)-1-(dimethylamino)-3-methyl-1-oxobutan-2-yl)amino)-2-methyl-1-oxopropan-2-yl)-1-((4-methyl-3-(1-methyl-7-((6-methylpyridin-3-yl)amino)-2-oxo-1,4-dihydropyrimido[4,5-d]pyrimidin-3(2H)-yl)benzoyl)-L-valyl)pyrrolidine-2-carboxamide] (X1-V[dP][Aib]V-NMe2), the IC50 on LCK (read-out: LCK IC50) and at c-Src (read-out: c-Src IC50) was > 600 nM each time.

For the molecule `C=CCCC1=N[C@@H](CC(=O)Nc2ccc(C)c(N3Cc4cnc(Nc5ccc(C)nc5)nc4N(C)C3=O)c2)C(=O)Nc2ccccc21` [Example 44, (S)-2-(5-(but-3-en-1-yl)-2-oxo-2,3-dihydro-1H-benzo[e][1,4]diazepin-3-yl)-N-(4-methyl-3-(1-methyl-7-((6-methylpyridin-3-yl)amino)-2-oxo-1,4-dihydropyrimido[4,5-d]pyrimidin-3(2H)-yl)phenyl)acetamide], the half-inhibitory concentration (IC50) at LCK (read-out: LCK IC50) and on c-Src (read-out: c-Src IC50) was 1 to 200 nM throughout.

Take `Cc1ccc(Nc2ncc3c(n2)N(C)C(=O)N(c2cc(C(=O)N[C@H](C(=O)N4CCC[C@@H]4C(=O)NC4(C(=O)N[C@@H](CC(C)C)C(=O)N(C)C)CC4)C(C)C)ccc2C)C3)cn1` [Example 3, (R)—N-(1-(((S)-1-(dimethylamino)-4-methyl-1-oxopentan-2-yl)carbamoyl)cyclopropyl)-1-((4-methyl-3-(1-methyl-7-((6-methylpyridin-3-yl)amino)-2-oxo-1,4-dihydropyrimido[4,5-d]pyrimidin-3(2H)-yl)benzoyl)-L-valyl)pyrrolidine-2-carboxamide] (X1-V[dP][Ac3c]L-NMe2): the IC50 against LCK is 1 to 200 nM; at c-Src, > 600 nM.

With `Cc1ccc(Nc2ncc3c(n2)N(C)C(=O)N(c2cc(C(=O)N[C@H](C(=O)N4CCC[C@H]4C(=O)NC4(C(=O)N[C@@H](CC(C)C)C(=O)N(C)C)CC4)C(C)C)ccc2C)C3)cn1` [Example 4, (S)—N-(1-(((S)-1-(dimethylamino)-4-methyl-1-oxopentan-2-yl)carbamoyl)cyclopropyl)-1-((4-methyl-3-(1-methyl-7-((6-methylpyridin-3-yl)amino)-2-oxo-1,4-dihydropyrimido[4,5-d]pyrimidin-3(2H)-yl)benzoyl)-L-valyl)pyrrolidine-2-carboxamide] (X1-VP[Ac3c]L-NMe2), the IC50 was in the range of 1 to 200 nM on LCK and 200 to 400 nM against c-Src.
